Reference: patent publication US4308251A, “Controlled release formulations of orally-active medicaments” (Boots Pharmaceuticals, Inc., priority 1980, dated 1981)

Key:
[1] = tested on: patients with pain (chronic bursitis, knee injury); format: in vivo, human
Description: patient two is a housewife who suffered a painful right shoulder for two years. Consultants believed this condition was a result of chronic bursitis.
patient three is a person who is employed full time in an accounting department of a small company. […] While skating they fell, causing a partial tear of the medial collateral ligament and medial meniscus of the left knee. Support wrappings and acetaminophen were tried. […] This dosage regimen was maintained throughout the patient's convalescence.
patient one sustained a traumatic injury to the medial portion of their right knee during a basketball game.

patients taking aspirin = conditions: background statement; cited from earlier work
[2] = Patient No. 1, aspirin as regularly prescribed

| SMILES | pain relief ([1]; Patient No. 2, regular acetaminophen) | effect on shoulder pain [1, 2] | side effects [1, 2] | patients considered treatment failures because of side effects (patients taking aspirin) |
| --- | --- | --- | --- | --- |
| CC(=O)Nc1ccc(O)cc1 [acetaminophen] | only partial and temporary | – | – | – |
| CC(=O)Oc1ccccc1C(=O)O [aspirin, acetylsalicylic acid] | – | ineffective | epigastric discomfort | Approximately sixty |
